# Measurements from patent publication US20100298141A1, “SUBSTITUTED PYRIDINE N-OXIDE HERBICIDES” (E. I. DU PONT DE NEMOURS AND COMPANY, priority 2007, published 2010).
# Experiments:
# corn = assay: Test A pre-/postemergence greenhouse test; format: in vivo, Zea mays; conditions: for Corn plant response rating: 0 to 100 scale; for Plant response rating, Corn: 0 to 100 scale where 0 is no effect and 100 is complete control
# Summary of the method: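 Each test compound, dissolved in a non-phytotoxic solvent mixture with surfactant, was sprayed directly onto seeded soil (loam/sand blend) and, at the same moment, onto seedlings carrying one to two leaves. Around ten greenhouse days later, plants were rated visually for injury relative to untreated controls.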
# common mallow = assay: Test F preemergence test; format: in vivo, Malva sylvestris; conditions: scale 0 to 100
# Summary of the method: (§1)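 Test chemicals in a non-phytotoxic solvent mixture containing a surfactant were applied preemergence to sown seeds or postemergence to sugarcane plants. Treated plants and controls were held in a greenhouse for 14 to 21 days, then visually evaluated against controls.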
# broadleaf signalgrass = assay: Test F preemergence test; format: in vivo, Brachiaria platyphylla; conditions: scale 0 to 100
# Summary of the method: as §1
# green foxtail = assay: Test C pre-/postemergence test; format: in vivo, Setaria viridis
# Summary of the method: (§2)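 Test chemicals were formulated with surfactant in a non-phytotoxic solvent and sprayed both on freshly planted seeds (preemergence) and on 1- to 4-leaf plants of 2–18 cm (postemergence). Flooded-paddy pots received compound directly into 3 cm of standing water, maintained for the test.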
# kochia = assay: Test F preemergence test; format: in vivo, Kochia scoparia; conditions: scale 0 to 100
# Summary of the method: as §1
# Virginia dayflower = assay: Test F preemergence test; format: in vivo, Commelina virginica; conditions: scale 0 to 100
# Summary of the method: as §1
# common ragweed = assay: Test C pre-/postemergence test; format: in vivo, Ambrosia elation
# Summary of the method: as §2
# blackgrass = assay: Test C pre-/postemergence test; format: in vivo, Alopecurus myosuroides; conditions: for Plant response rating (0 to 100), Blackgrass: 250 g ai/ha
# Summary of the method: as §2
# quackgrass = assay: Test F preemergence test; format: in vivo, Elytrigia repens; conditions: scale 0 to 100
# Summary of the method: as §1
# Surinam grass = assay: Test F preemergence test; format: in vivo, Brachiaria decumbens; conditions: scale 0 to 100
# Summary of the method: as §1
# dallisgrass = assay: Test F preemergence test; format: in vivo, Paspalum dilatatum; conditions: scale 0 to 100
# Summary of the method: as §1
# mustard = assay: Test F preemergence test; format: in vivo, Brassica nigra; conditions: scale 0 to 100
# Summary of the method: as §1
# bermudagrass = assay: Test F preemergence test; format: in vivo, Cynodon dactylon; conditions: scale 0 to 100
# Summary of the method: as §1
# prickly sida = assay: Test F preemergence test; format: in vivo, Sida spinosa; conditions: scale 0 to 100
# Summary of the method: as §1
# [1] = Postemergence, 125 g ai/ha, 0 is no effect, 100 is complete control
# [2] = Postemergence, 500 g ai/ha, 0 is no effect, 100 is complete control
# [3] = Preemergence, 125 g ai/ha, 0 no effect, 100 complete control
# [4] = 62 g ai/ha, Preemergence, scale 0 to 100
# [5] = Preemergence, 31 g ai/ha, scale 0 to 100 (0 no effect, 100 complete control)
# [6] = preemergence, 125 g ai/ha, scale 0 (no effect) to 100 (complete control)
# [7] = 31 g ai/ha, Preemergence, scale 0 to 100
# [8] = 62 g ai/ha, preemergence, scale 0 (no effect) to 100 (complete control)
compound,measurement,setting,value
Cc1cc[n+]([O-])c(S(=O)(=O)Cc2c(C(F)(F)F)nn(C)c2OCC(F)(F)F)c1 [Compound 31],Corn plant response rating,corn; [1],40
same,Corn plant response rating,corn; [2],40
same,Corn plant response rating,corn; [3],0
same,"Plant response rating, Corn","corn; Preemergence, 500 g ai/ha",50
same,"Plant response rating, Mallow","common mallow; 16 g ai/ha, preemergence",0
same,Mallow plant response rating,"common mallow; 62 g ai/ha, Preemergence",100
same,Mallow plant response rating,"common mallow; 125 g ai/ha, preemergence",100
same,"Plant response rating, Mallow","common mallow; Preemergence, 31 g ai/ha",100
same,"Plant response rating, Signalgrass","broadleaf signalgrass; 16 g ai/ha, preemergence",35
same,Signalgrass plant response rating,"broadleaf signalgrass; 125 g ai/ha, preemergence",98
same,"Plant response rating, Signalgrass","broadleaf signalgrass; Preemergence, 62 g ai/ha",90
same,"Plant response rating, Signalgrass","broadleaf signalgrass; Preemergence, 31 g ai/ha",60
same,"Foxtail, Green plant response rating",green foxtail; [4],100
same,"Plant response rating, Foxtail, Green",green foxtail; [5],100
same,"Plant response rating, Kochia","kochia; 16 g ai/ha, preemergence",0
same,Kochia plant response rating,"kochia; 62 g ai/ha, Preemergence",65
same,Kochia plant response rating,"kochia; 125 g ai/ha, preemergence",100
same,"Plant response rating, Kochia","kochia; Preemergence, 31 g ai/ha",0
same,"Plant response rating, Dayflower","Virginia dayflower; 16 g ai/ha, preemergence",30
same,Dayflower plant response rating,"Virginia dayflower; 62 g ai/ha, Preemergence",100
same,Dayflower plant response rating,"Virginia dayflower; 125 g ai/ha, preemergence",100
same,"Plant response rating, Dayflower","Virginia dayflower; Preemergence, 31 g ai/ha",65
same,Ragweed plant response rating,common ragweed; [4],10
same,"Plant response rating, Ragweed",common ragweed; [5],0
same,Blackgrass plant response rating,blackgrass; [4],80
same,"Plant response rating, Blackgrass",blackgrass; [5],60
same,"Plant response rating (0 to 100), Blackgrass",blackgrass; Preemergence,100
same,Blackgrass plant response rating,blackgrass; [6],100
same,"Plant response rating, Quackgrass","quackgrass; 16 g ai/ha, preemergence",15
same,Quackgrass plant response rating,"quackgrass; 62 g ai/ha, Preemergence",75
same,Quackgrass plant response rating,"quackgrass; 125 g ai/ha, preemergence",95
same,"Plant response rating, Quackgrass","quackgrass; Preemergence, 31 g ai/ha",65
same,"Plant response rating, Surinam Grass","Surinam grass; 16 g ai/ha, preemergence",20
same,Surinam Grass plant response rating,"Surinam grass; 125 g ai/ha, preemergence",100
same,"Plant response rating, Surinam Grass","Surinam grass; Preemergence, 62 g ai/ha",95
same,"Plant response rating, Surinam Grass","Surinam grass; Preemergence, 31 g ai/ha",85
same,"Plant response rating, Dallisgrass","dallisgrass; 16 g ai/ha, preemergence",35
same,Dallisgrass plant response rating,"dallisgrass; 62 g ai/ha, Preemergence",95
same,Dallisgrass plant response rating,"dallisgrass; 125 g ai/ha, preemergence",100
same,"Plant response rating, Dallisgrass","dallisgrass; Preemergence, 31 g ai/ha",60
same,"Plant response rating, Black Mustard","mustard; 16 g ai/ha, preemergence",40
same,Black Mustard plant response rating,"mustard; 62 g ai/ha, Preemergence",100
same,Black Mustard plant response rating,"mustard; 125 g ai/ha, preemergence",100
same,"Plant response rating, Black Mustard","mustard; Preemergence, 31 g ai/ha",95
same,"Plant response rating, Bermudagrass","bermudagrass; 16 g ai/ha, preemergence",20
same,Bermudagrass plant response rating,"bermudagrass; 62 g ai/ha, Preemergence",100
same,Bermudagrass plant response rating,"bermudagrass; 125 g ai/ha, preemergence",100
same,"Plant response rating, Bermudagrass","bermudagrass; Preemergence, 31 g ai/ha",75
same,"Plant response rating, Prickly Sida","prickly sida; 16 g ai/ha, preemergence",40
same,Prickly Sida plant response rating,"prickly sida; 62 g ai/ha, Preemergence",80
same,Prickly Sida plant response rating,"prickly sida; 125 g ai/ha, preemergence",100
same,"Plant response rating, Prickly Sida","prickly sida; Preemergence, 31 g ai/ha",75
Cc1cc[n+]([O-])c(S(=O)(=O)C(C)c2c(C(F)(F)F)nn(C)c2OC(F)F)c1 (stereo not drawn) [Compound 11],Corn plant response rating,corn; [1],30
same,Corn plant response rating,corn; [2],50
same,Corn plant response rating,corn; [3],30
same,"Plant response rating, Corn","corn; Preemergence, 500 g ai/ha",60
same,Mallow plant response rating,"common mallow; 62 g ai/ha, Preemergence",100
same,Mallow plant response rating,"common mallow; 125 g ai/ha, preemergence",100
same,"Plant response rating, Mallow","common mallow; Preemergence, 16 g ai/ha",30
same,"Plant response rating, Mallow","common mallow; Preemergence, 31 g ai/ha",30
same,Signalgrass plant response rating,"broadleaf signalgrass; 62 g ai/ha, Preemergence",75
same,Signalgrass plant response rating,"broadleaf signalgrass; 125 g ai/ha, preemergence",75
same,"Plant response rating, Signalgrass","broadleaf signalgrass; Preemergence, 31 g ai/ha",65
same,"Foxtail, Green plant response rating",green foxtail; [7],80
same,"Foxtail, Green plant response rating",green foxtail; [8],100
same,"Plant response rating (0 to 100), Foxtail, Green","green foxtail; Preemergence, 250 g ai/ha",100
same,"Foxtail, Green plant response rating",green foxtail; [6],100
same,Kochia plant response rating,"kochia; 125 g ai/ha, preemergence",100
same,"Plant response rating, Kochia","kochia; Preemergence, 16 g ai/ha",0
same,"Plant response rating, Kochia","kochia; Preemergence, 31 g ai/ha",100
same,Dayflower plant response rating,"Virginia dayflower; 62 g ai/ha, Preemergence",100
same,Dayflower plant response rating,"Virginia dayflower; 125 g ai/ha, preemergence",100
same,"Plant response rating, Dayflower","Virginia dayflower; Preemergence, 16 g ai/ha",0
same,"Plant response rating, Dayflower","Virginia dayflower; Preemergence, 31 g ai/ha",80
same,Ragweed plant response rating,common ragweed; [7],55
same,Ragweed plant response rating,common ragweed; [8],75
same,"Plant response rating (0 to 100), Ragweed","common ragweed; Preemergence, 250 g ai/ha",100
same,Ragweed plant response rating,common ragweed; [6],95
same,Blackgrass plant response rating,blackgrass; [7],0
same,Blackgrass plant response rating,blackgrass; [8],0
same,"Plant response rating (0 to 100), Blackgrass",blackgrass; Preemergence,90
same,Blackgrass plant response rating,blackgrass; [6],90
same,Quackgrass plant response rating,"quackgrass; 62 g ai/ha, Preemergence",75
same,Quackgrass plant response rating,"quackgrass; 125 g ai/ha, preemergence",90
same,"Plant response rating, Quackgrass","quackgrass; Preemergence, 16 g ai/ha",0
same,"Plant response rating, Quackgrass","quackgrass; Preemergence, 31 g ai/ha",60
same,Surinam Grass plant response rating,"Surinam grass; 62 g ai/ha, Preemergence",100
same,Surinam Grass plant response rating,"Surinam grass; 125 g ai/ha, preemergence",100
same,"Plant response rating, Surinam Grass","Surinam grass; Preemergence, 31 g ai/ha",98
same,Dallisgrass plant response rating,"dallisgrass; 62 g ai/ha, Preemergence",90
same,Dallisgrass plant response rating,"dallisgrass; 125 g ai/ha, preemergence",100
same,"Plant response rating, Dallisgrass","dallisgrass; Preemergence, 16 g ai/ha",65
same,"Plant response rating, Dallisgrass","dallisgrass; Preemergence, 31 g ai/ha",80
same,Black Mustard plant response rating,"mustard; 62 g ai/ha, Preemergence",100
same,Black Mustard plant response rating,"mustard; 125 g ai/ha, preemergence",100
same,"Plant response rating, Black Mustard","mustard; Preemergence, 16 g ai/ha",35
same,"Plant response rating, Black Mustard","mustard; Preemergence, 31 g ai/ha",80
same,Bermudagrass plant response rating,"bermudagrass; 62 g ai/ha, Preemergence",98
same,Bermudagrass plant response rating,"bermudagrass; 125 g ai/ha, preemergence",100
same,"Plant response rating, Bermudagrass","bermudagrass; Preemergence, 16 g ai/ha",35
same,"Plant response rating, Bermudagrass","bermudagrass; Preemergence, 31 g ai/ha",70
same,Prickly Sida plant response rating,"prickly sida; 62 g ai/ha, Preemergence",95
same,Prickly Sida plant response rating,"prickly sida; 125 g ai/ha, preemergence",100
same,"Plant response rating, Prickly Sida","prickly sida; Preemergence, 16 g ai/ha",0
same,"Plant response rating, Prickly Sida","prickly sida; Preemergence, 31 g ai/ha",70
